Patent publication US20120214875A1, “PHENOX[…]” (priority 2011, published 2012)
“And” between values parts separate entries of the source, which are not always exact repeats. Equal values may be shown once.

Key:
[1] = Stability of phenoxybenzamine in whole blood; format: in vitro ADME, human; details: for WB Sample Amount Found, Mean: mean of six; for WB Sample Amount Found: single replicates
Experimental: Stability of phenoxybenzamine in human whole blood was determined by spiking phenoxybenzamine into fresh human whole blood. This was followed by the preparation of the whole blood samples into two sets: one set was immediately processed into plasma and the other set was stored at 4° C.±4° C. for up to two hours and then processed into plasma. Samples were extracted in replicates of six with control blank and analyzed.

[2] = Autosampler re-injection reproducibility of extracted QC samples; format: physicochemical; details: for Amount Found: single replicates; for % Difference: 7° C. ± 4° C.
Experimental: (§1) Phenoxybenzamine and the internal standard phenoxybenzamine-d5 were extracted from 0.2 mL of human plasma, using EDTA (potassium K2 salt) as the anticoagulant and containing 1.3% of H3PO4 as stabilizer, by solid phase extraction into 0.8 mL of 0.1% TFA in 80% methanol, followed by dilution with 0.4 mL of 0.1% TFA. An aliquot of this extract was injected into a high performance liquid chromatography system and detected using an API 3000 tandem mass spectrometer with HSID interface and quantitated using peak area ratio method. Method sensitivity and selectivity were achieved by detecting distinct precursor to product ion mass transitions for phenoxybenzamine (304.1→120.0) and the internal standard phenoxybenzamine-d5 (309.1→120.0) at defined retention times under reverse chromatographic conditions.
(§2) Blood plasma was separated from whole blood. The plasma samples should be protected from light and may be stored at −70° C. for use. The plasma samples were thawed in cold tap water and analyzed along with a set of standard samples. All samples were vortexed for about 20 seconds, centrifuged at 3000 rpm for 5 minutes at 4° C.±4° C., and placed in an ice-water bath. 200 uL of plasma was added to polypropylene tubes and kept in ice-water bath. 100 uL of internal standard working solution (40 ng/mL of phenoxybenzamine-d5) was added into all the tubes except those labeled with “BLANK.” 100 uL of 0.1 N HCl in 20% methanol was added to those labeled with BLANK and the tubes were vortexed for about 20 seconds. 400 uL of 1.7% phosphoric acid was added into all tubes. The tubes were vortexed for about 40 seconds and left in an ice-water bath. The Oasis™ HLB 1 cc (30 mg) cartridges (Waters) were washed first with 700 uL methanol and then with 700 uL water. The samples prepared above were then transferred into the cartridges which were then centrifuged at 1000 rpm for 2 minutes at 4° C.±4° C. Cartridges were then first washed with 700 uL water and then washed with 700 uL of 0.1% TFA in 40% methanol. Cartridges were then eluted twice with 400 μL of 0.1% TFA in 80% methanol, and all of the eluates were collected and diluted with 400 μL of 0.1% TFA. The extracted samples were then ready for analysis.
The mean concentration of the aged re-injected samples was compared with the mean concentration of the initial zero hour samples prepared at the same concentration as the QC samples.

[3] = Processed sample integrity; format: physicochemical; details: for Amount Found: single replicates; for % Difference: ~112 hours vs 0.0 hours, 4° C. ± 4° C.
Experimental: as §1, §2
The mean concentration at each time-point was compared with the mean concentration of the zero hour samples.

[4] = Stability of phenoxybenzamine in neat solution; format: physicochemical
Experimental: The stability of phenoxybenzamine in neat solutions was examined. The measured amount of phenoxybenzamine in neat solution dropped ˜90% in 24 hours at ambient temperature but ˜20% at 4° C.

[5] = Stability of phenoxybenzamine in various solvents; format: physicochemical
Experimental: Various solvents were examined for their abilities to stabilize phenoxybenzamine. The solvents examined were alcohol, acetonitrile (ACN), methanol (MeOH), acidified solvents (e.g., acidified MeOH and acidified ACN). Phenoxybenzamine in these solvents was not stable for 24 hr at 4° C. The stability of phenoxybenzamine was examined in acidified ACN with 0.5%, 1% and 2% formic acid (“FA”). Phenoxybenzamine was stable for ˜3 hr at RT and 4° C. The measured amount of phenoxybenzamine for neat standard in 0.5% FA in ACN was higher than those using 1% FA in ACN, and 2% FA in ACN.
The stability of phenoxybenzamine was examined in acidified MeOH (80% MeOH containing 0.1% TFA). Phenoxybenzamine was stable for at least 48 hours at 4° C., −25° C. and −70° C.
(§3) The stability of phenoxybenzamine in acidified plasma samples containing 1% FA, 1% H3PO4, 2% H3PO4 or 0.1N HCl was tested.

[6] = Stability of phenoxybenzamine in acidified plasma; format: in vitro ADME
Experimental: as §3

[7] = human whole blood, ~2 hours at 4° C.±4° C.
[8] = QC HIGH 19.232 ng/mL added, 0.0 hours
[9] = QC HIGH 19.232 ng/mL added, ~75 hours at 7° C. ± 4° C.
[10] = QC HIGH 19.232 ng/mL added, ~110 hours at 7° C. ± 4° C.
[11] = QC LOW 0.601 ng/mL added, 0.0 hours
[12] = QC LOW 0.601 ng/mL added, ~110 hours at 7° C. ± 4° C.
[13] = QC HIGH 19.232 ng/mL added, ~112 hours at 4° C. ± 4° C.
[14] = QC LOW 0.601 ng/mL added, ~112 hours at 4° C. ± 4° C.

CC(COc1ccccc1)N(CCCl)Cc1ccccc1 (racemic) [phenoxybenzamine, (RS)—N-benzyl-N-(2-chloroethyl)-1-phenoxy-propan-2-amine]
WB Sample Amount Found, Mean ([1]; human whole blood, time 0.0 hours): 3.357 ng/mL | WB Sample Amount Found ([1]; human whole blood, time 0.0 hours, processed immediately into plasma): 3.379 ng/mL and 3.325 ng/mL and 3.381 ng/mL and 3.387 ng/mL and 3.305 ng/mL and 3.365 ng/mL | WB Sample Amount Found, Mean [1, 7]: 3.297 ng/mL | WB Sample Amount Found [1, 7]: 3.315 ng/mL and 3.330 ng/mL and 3.365 ng/mL and 3.328 ng/mL and 3.283 ng/mL and 3.160 ng/mL | % Difference ([1]; human whole blood, ~2 hours vs 0.0 hours, 4° C.±4° C.): −1.8% | time stable in whole blood ([1]; stored at 4° C.±4° C.): up to 2 hours | Amount Found, Mean [2, 8]: 18.178 ng/mL | Amount Found [2, 8]: 18.305 ng/mL and 18.069 ng/mL and 18.161 ng/mL | Amount Found, Mean [2, 9]: 18.411 ng/mL | Amount Found [2, 9]: 18.066 ng/mL and 18.686 ng/mL and 18.482 ng/mL | Amount Found, Mean [2, 10]: 18.423 ng/mL | Amount Found [2, 10]: 18.179 ng/mL and 18.435 ng/mL and 18.656 ng/mL | % Difference ([2]; QC HIGH, ~75 hours vs 0.0 hours): 1.3% | % Difference ([2]; QC HIGH, ~110 hours vs 0.0 hours): 1.3% | Amount Found, Mean [2, 11]: 0.601 ng/mL | Amount Found [2, 11]: 0.590 ng/mL and 0.603 ng/mL and 0.610 ng/mL | Amount Found, Mean ([2]; QC LOW 0.601 ng/mL added, ~75 hours at 7° C. ± 4° C.): 0.615 ng/mL | Amount Found ([2]; QC LOW 0.601 ng/mL added, ~75 hours in autosampler at 7° C. ± 4° C.): 0.610 ng/mL and 0.646 ng/mL and 0.590 ng/mL | Amount Found, Mean [2, 12]: 0.603 ng/mL | Amount Found [2, 12]: 0.602 ng/mL and 0.612 ng/mL and 0.595 ng/mL | % Difference ([2]; QC LOW, ~75 hours vs 0.0 hours): 2.4% | % Difference ([2]; QC LOW, ~110 hours vs 0.0 hours): 0.3% | time for which extracted samples can be re-injected ([2]; extracted samples stored in autosampler at 7° C.±4° C.): up to 110 hours | time for which integrity of processed samples is not affected ([3]; LOW and HIGH concentrations, 4° C.±4° C.): up to 112 hours | Amount Found, Mean [3, 8]: 18.178 ng/mL | Amount Found [3, 8]: 18.305 ng/mL and 18.069 ng/mL and 18.161 ng/mL | Amount Found, Mean [3, 13]: 18.214 ng/mL | Amount Found [3, 13]: 18.209 ng/mL and 18.214 ng/mL and 18.220 ng/mL | % Difference ([3]; QC HIGH): 0.2% | Amount Found, Mean [3, 11]: 0.601 ng/mL | Amount Found [3, 11]: 0.590 ng/mL and 0.603 ng/mL and 0.610 ng/mL | Amount Found, Mean [3, 14]: 0.583 ng/mL | Amount Found [3, 14]: 0.574 ng/mL and 0.590 ng/mL and 0.586 ng/mL | % Difference ([3]; QC LOW): −2.9% | drop of measured amount in neat solution ([4]; 24 hours at 4° C.): ~20% | drop of measured amount in neat solution ([4]; 24 hours at ambient temperature): ~90% | measured amount for neat standard in 0.5% FA in ACN compared with 1% FA and 2% FA in ACN ([5]; 0.5% FA in ACN vs 1% and 2% FA in ACN): higher | drop, autosampler stability ([5]; 0.5% FA in ACN, ~24 hr): ~70% | autosampler re-injection stability, time stable ([5]; 80% MeOH containing 0.1% TFA): at least 24 hours | time stable in acidified MeOH ([5]; 80% MeOH containing 0.1% TFA, 4° C., −25° C. and −70° C.): at least 48 hours | time stable in acidified ACN ([5]; ACN with 0.5%, 1% and 2% formic acid, RT and 4° C.): ~3 h | stability in solvents ([5]; alcohol, acetonitrile, methanol, acidified MeOH and acidified ACN, 24 hr at 4° C.): not stable | stability in acidified plasma ([6]; plasma containing 0.1N HCl): stable | stability in acidified plasma ([6]; plasma containing 1% FA): stable except for 1% FA | stability in acidified plasma ([6]; plasma containing 1% H3PO4): stable | stability in acidified plasma ([6]; plasma containing 2% H3PO4): stable
